In patent publication US20250353819A1, “ARYL HYDANTOIN COMPOUNDS AND METHODS OF USE” (priority 2022, published 2025):
Values joined by “and” are separate entries in the source; they are usually repeats but may differ in a detail not shown here. Identical values can stand only once. Like-named read-outs stand apart in the source and are kept apart here.

Experiments:
[1] = Pharmacokinetics in male Sprague Dawley rats; assay type: in vivo, rat; conditions: for Plasma Concentration: oral 1 mg/kg
Procedure: IV and oral formulations were prepared using the same method. On the day of dosing the solid compound was dissolved in DMSO prior to addition of a saline solution (0.9% w/v). The samples were then mixed using vortexing producing colourless solutions. The IV formulation was filtered through a 0.22 μm syringe filter prior to dosing and the oral formulation was dosed without filtration.
Samples of arterial blood were collected up to 168 h post-dose. Urine samples were not collected as animals were housed in bedded cages. Arterial blood was collected directly into borosilicate vials (at 4° C.) containing heparin as anticoagulant. Once collected, blood samples were centrifuged, supernatant plasma was removed and stored frozen (−80° C.) until analysis by LC-MS. A summary of the bioanalytical method and assay validation details is included in Tables 14 and 15.
Plasma concentration versus time data were analysed using non-compartmental methods (PKSolver Version 2.0). Standard calculations for each pharmacokinetic parameter are listed below.

[2] = LogD7.4 (shake flask); conditions: pH 7.4
[3] = molecular target: CYP 3A4 (Homo sapiens (Human), UniProt P08684); test: CYP inhibition in human liver microsomes, 3A4
CYP 3A4, sequence (P08684 whole entry): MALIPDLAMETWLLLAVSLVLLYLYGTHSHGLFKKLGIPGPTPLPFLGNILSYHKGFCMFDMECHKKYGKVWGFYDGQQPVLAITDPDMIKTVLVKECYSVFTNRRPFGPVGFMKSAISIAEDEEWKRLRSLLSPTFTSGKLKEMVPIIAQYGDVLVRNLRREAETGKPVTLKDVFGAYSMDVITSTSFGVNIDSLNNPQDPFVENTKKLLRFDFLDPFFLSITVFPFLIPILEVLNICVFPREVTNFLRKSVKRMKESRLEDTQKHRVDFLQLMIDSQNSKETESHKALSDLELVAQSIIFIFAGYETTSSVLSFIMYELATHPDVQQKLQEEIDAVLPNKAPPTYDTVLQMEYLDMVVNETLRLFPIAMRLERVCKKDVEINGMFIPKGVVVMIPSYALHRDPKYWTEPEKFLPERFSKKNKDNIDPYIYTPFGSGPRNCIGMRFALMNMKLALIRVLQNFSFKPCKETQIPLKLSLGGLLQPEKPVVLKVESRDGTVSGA

[4] = Whole blood-to-plasma ratio, mouse
[5] = tested on: LAPC4 cells; test: Androgen-dependent cell-based assay (DHT, LAPC4); conditions: Homo sapiens; DHT-induced, androgen-dependent LAPC4 prostate cancer cell line; read-out: LAPC4 IC50
Procedure: Androgen-Dependent Cell-based Assay. As described by Jones and Diamond (2008), LAPC4 cells were cultured in phenol red free RPMI 1640 media supplemented with antibiotics and 10% FBS. […] […] Mean-effect plots (log[compound] vs. log[fractional effect]) were generated to determine the IC50 values for each test compound or combinations of test compounds at constant ratios.

[6] = tested on: S. mansoni; test: Antischistosomal screen in S. mansoni-infected mice; assay type: in vivo, Schistosoma mansoni; conditions: Schistosoma mansoni, single oral dose, mouse model
From the text: Antischistosomal Screen. […] As described by Lombardo et al. (2019), cercariae of S. mansoni were obtained from infected Biomphalaria glabrata. By way of example, NMRI mice were infected subcutaneously with approximately 100 S. mansoni cercariae. […] Untreated mice (n=8) served as controls. At 21 d post-treatment, animals were killed by the CO2 method and dissected. Worms were removed by picking, then sexed and counted.

[7] = Mouse exposure / pharmacokinetic studies; assay type: in vivo, mice
[8] = molecular target: CYP 2C9 (Homo sapiens (Human), UniProt P11712); test: CYP inhibition in human liver microsomes, 2C9
CYP 2C9, sequence (P11712 whole entry): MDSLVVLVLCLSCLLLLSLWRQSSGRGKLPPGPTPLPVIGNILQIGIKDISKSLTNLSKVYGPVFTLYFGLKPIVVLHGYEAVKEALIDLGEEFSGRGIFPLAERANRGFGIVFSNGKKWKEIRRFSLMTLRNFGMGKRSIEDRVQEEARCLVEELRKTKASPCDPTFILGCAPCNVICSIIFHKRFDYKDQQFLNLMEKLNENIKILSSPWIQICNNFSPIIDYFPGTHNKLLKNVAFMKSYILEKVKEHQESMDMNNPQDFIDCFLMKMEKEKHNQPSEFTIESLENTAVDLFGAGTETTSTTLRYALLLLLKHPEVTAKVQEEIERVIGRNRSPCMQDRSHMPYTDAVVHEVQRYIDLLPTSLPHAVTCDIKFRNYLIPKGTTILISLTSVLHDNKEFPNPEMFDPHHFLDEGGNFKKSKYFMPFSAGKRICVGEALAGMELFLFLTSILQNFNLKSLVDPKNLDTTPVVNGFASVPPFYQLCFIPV

[9] = molecular target: CYP 2D6 (Homo sapiens (Human), UniProt P10635); test: CYP inhibition in human liver microsomes, 2D6
CYP 2D6, sequence (P10635 whole entry): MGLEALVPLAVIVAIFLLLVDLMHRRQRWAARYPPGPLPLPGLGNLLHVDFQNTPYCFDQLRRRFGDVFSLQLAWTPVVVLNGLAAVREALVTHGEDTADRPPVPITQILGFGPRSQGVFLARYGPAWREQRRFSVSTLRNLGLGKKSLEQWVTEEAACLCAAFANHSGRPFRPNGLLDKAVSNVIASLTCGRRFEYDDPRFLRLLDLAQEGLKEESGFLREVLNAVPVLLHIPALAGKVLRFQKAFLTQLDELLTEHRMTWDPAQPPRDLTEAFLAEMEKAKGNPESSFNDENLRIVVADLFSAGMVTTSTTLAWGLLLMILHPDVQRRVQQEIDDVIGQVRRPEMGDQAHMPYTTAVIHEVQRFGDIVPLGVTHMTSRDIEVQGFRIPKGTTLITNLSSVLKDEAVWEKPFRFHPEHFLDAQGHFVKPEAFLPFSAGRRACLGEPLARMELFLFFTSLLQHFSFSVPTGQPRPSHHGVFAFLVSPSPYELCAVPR

[10] = rats, IV 1 mg/kg, individual rats
[11] = rats, PO 1 mg/kg, individual rats

## CC1(C)NC(=O)N(c2ccc(F)c(C(C)(F)F)c2)C1=O [Compound IC, 3-(3-(1,1-difluoroethyl)-4-fluorophenyl)-5,5-dimethylimidazolidine-2,4-dione]
[1]; 2.00 h, mean
  Plasma Concentration: 515 ng/mL
[1]; 4.00 h, individual rats
  Plasma Concentration: 545 ng/mL and 477 ng/mL and 474 ng/mL
[1]; 4.00 h, mean
  Plasma Concentration: 499 ng/mL
[1]; 7.00 h, individual rats
  Plasma Concentration: 612 ng/mL and 559 ng/mL and 455 ng/mL
[1]; 7.00 h, mean
  Plasma Concentration: 542 ng/mL
[1]; 24.00 h, individual rats
  Plasma Concentration: 365 ng/mL and 309 ng/mL and 390 ng/mL
[1]; 24.00 h, mean
  Plasma Concentration: 355 ng/mL
[1]; 36.00 h, individual rats
  Plasma Concentration: 294 ng/mL and 183 ng/mL and 254 ng/mL
[1]; 36.00 h, mean
  Plasma Concentration: 243 ng/mL
[1]; 48.00 h, individual rats
  Plasma Concentration: 188 ng/mL and 94 ng/mL and 170 ng/mL
[1]; 48.00 h, mean
  Plasma Concentration: 151 ng/mL
[1]; 72.00 h, individual rats
  Plasma Concentration: 82.4 ng/mL and 58.1 ng/mL and 31.5 ng/mL
[1]; 72.00 h, mean
  Plasma Concentration: 57 ng/mL
[1]; 96.00 h, individual rats
  Plasma Concentration: 32.0 ng/mL and 5.1 ng/mL and 28.5 ng/mL
[1]; 96.00 h, mean
  Plasma Concentration: 21.8 ng/mL
[1]; 144.00 h, individual rats
  Plasma Concentration: 2.9 ng/mL and 4.4 ng/mL
[1]; 144.00 h, mean
  Plasma Concentration: 3.7 ng/mL
[1]; rats, 7-day sampling period after IV or oral 1 mg/kg
  adverse reactions or compound-related side effects: no adverse reactions or compound-related side effects
[1]; [10]
  Apparent t1/2: 14 h
  Blood CL: 0.589 mL/min/kg and 0.808 mL/min/kg
  Blood Vss: 0.991 L/kg and 1.19 L/kg
  Plasma AUCIV: 23.6 µg·h/mL and 17.2 µg·h/mL
  Plasma CL: 0.707 mL/min/kg and 0.970 mL/min/kg
  Plasma Vss: 1.19 L/kg and 1.43 L/kg
[1]; rats, IV 1 mg/kg, mean (n = 3)
  Apparent t1/2: 15 h
  Plasma AUCIV: 20.6 µg·h/mL
[1]; rats, IV and oral 1 mg/kg
  time for which measurable plasma concentrations were observed: up to 6 days
[1]; [11]
  Apparent t1/2: 13 h and 19 h
  BA: 113% and 85.5% and 99.2%
  Plasma AUCoral: 17.6 µg·h/mL
  Plasma Cmax: 0.559 µg/mL and 0.543 µg/mL
  Tmax: 1.0 h and 7.0 h and 12 h
[1]; rats, PO 1 mg/kg, mean (n = 3)
  Apparent t1/2: 16 h
  Plasma Cmax: 0.572 µg/mL
[2]
  LogD7.4 (shake flask): 2.1
  logD: 2.1
[3]
  IC50: > 20 µM
[4]
  B:P: 0.95
[5]
  IC50: > 100 µM
[6]; adult stage, read-out: S. mansoni ED50, adult
  ED50: 20 mg/kg
[6]; juvenile stage, read-out: S. mansoni ED50, juvenile
  ED50: 23 mg/kg
[7]; male, Swiss outbred, mouse, in vivo, iv, 1 mg/kg, mice, IV, mean dose 1.0 mg/kg, read-out: Plasma CL
  clearance: 1.96 mL/min/kg
[7]; male, Swiss outbred, mouse, in vivo, 100 mg/kg PO in mice, read-out: AUC0-last
  AUC(0-t): 1560 µg·h/mL
[7]; male, Swiss outbred, mouse, in vivo, 100 mg/kg PO in mice, read-out: Cmax
  Cmax: 40000 ng/mL
[7]; male, Swiss outbred, mouse, in vivo, mice, IV, mean dose 1.0 mg/kg, read-out: Plasma AUC0-48 h
  AUC(0-t): 8.48 µg·h/mL
[7]; male, Swiss outbred, mouse, in vivo, mice, IV, mean dose 1.0 mg/kg, read-out: Plasma AUC0-inf
  AUC(0-inf): 8520 ng·h/mL
[7]; male, Swiss outbred, mouse, plasma, mice, IV, mean dose 1.0 mg/kg, read-out: Apparent t1/2 (converted)
  half-life: 534 min
[7]; mice, IV, mean dose 1.0 mg/kg
  PlasmaVSS: 1.64 L/kg
[8]
  IC50: > 20 µM
[9]
  IC50: > 20 µM
